Columns and labels:
[1] = test system: B cell activation in mouse whole blood induced by anti-IgD antibodies; assay: In vivo efficacy of the inhibitory effect on BTK target (anti-IgD antibody-induced B cell activation in mice whole blood after in vivo administration)
Procedure: (§1) Objects: B cells in mice whole blood were induced and activated by the anti-IgD antibody, and the inhibitory effect of the compound of the present invention on B cell activation in vivo was studied, so as to determine the inhibitory effect of the compound of the present invention on the BTK target in vivo.
(§2) Methods: C57BL/6 mice (female, 18-20 g, purchased from Shanghai Lingchang Biotechnology Co., Ltd.) were grouped according to Table 2.
(§3) The animals of each group were administered, then were placed in CO2 for anesthesia at designated time points, blood samples were taken from […] via retro-orbital bleeding, and heparin was used for anticoagulation; 90 μL of whole blood was taken from mice of each group, and added to a 96 well culture plate, and anti-mouse IgD antibody (BIO-RAD, Cat #MCA4693) was added to each well to a final concentration of 0.01 μg/μL (respectively for the each drug-treated group and anti-IgD antibody-inducted vehicle group); in addition, 90 μL of whole blood of mice in the vehicle group was taken and added to the 96-well culture plate, and PBS (phosphate buffer, GIBCO, Cat #C20012500BT) was added to each well to a final concentration of 0.01 μg/μL (namely, the vehicle control group); Each group was mixed well and incubated in a 37° C./5% CO2 incubator for 4 hours. In addition, the blood of mice in the drug-treated group was centrifuged to separate plasma for blood concentration analysis.
(§4) Calculation for B Cell Activation Ratio: B cell activation ratio=percentage of CD69+CD19+double positive B cells/percentage of CD19+single positive B cells
(§5) Calculation for Inhibition Ratio: Inhibition ratio=(percentage of B cell activation ratio in anti-IgD antibody-induced vehicle group-percentage of B cell activation ratio in drug-treated group)/(percentage of B cell activation ratio in anti-IgD antibody-induced vehicle group-percentage of B cell activation ratio in vehicle control group)×100%
(§6) All data are represented by mean±standard error. For the comparison between each drug-treated group and the anti-IgD antibody-induced vehicle group, p value was calculated by Graphpad Prism using one-way ANOVA analysis of variance and Dunnett's test, and for the comparison between each drug-treated group, p value was calculated by using unpaired t test.

[2] = as above; conditions: female, C57BL/6, mouse; 20 mg/kg single oral gavage, 16 h, mice plasma; read-out: Drug concentration in plasma
Procedure: as §1, §2, §3, §4, §5, §6

[3] = Stability test in liver microsomes (rat); type: in vitro ADME
Source text: (§7) Example 5 Stability Test in Liver Microsomes
(§8) Both male CD-1 mouse pooled liver microsomes and male SD rat pooled liver microsomes were purchased from BioreclamationIVT Corporation, USA.
(§9) Phenacetin, glucose-6-phosphate dehydrogenase (G-6-PDH) and nicotinamide adenine dinucleotide phosphate (NADP) were all purchased from Sigma-Aldrich Corporation, USA. Glucose-6-phosphate (G-6-P) was purchased from Shanghai Eybridge Chemical Technology Co., Ltd.
(§10) Ten mM test compound stock solution: a certain amount of test compound was weighed, and dissolved with an appropriate volume of DMSO to prepare a stock solution with a concentration of 10 mM for use.
(§11) Reaction stopping solution: an appropriate amount of internal standard compound phenacetin was dissolved in acetonitrile to prepare a reaction stopping solution with a concentration of 1000 ng/mL for use at room temperature.
(§12) The test compound stock solution was diluted with an organic solvent (usually a mixture of acetonitrile, methanol and water with various ratios, depending on the solubility of the compound, if necessary, 1 N hydrochloric acid or 1 N sodium hydroxide would be added to facilitate solubilization) to the 0.1 mM (the final concentration of the compound in the reaction system was 1 μM) and the concentration percentage of the organic solvents in the incubation system no more than 1% (wherein the percentage of DMSO was required to be no more than 0.1%). An appropriate amount of 100 mM NADP, 500 mM G-6-P and 100 Unit/mL G-6-PDH were mixed and diluted with ultrapure water (the final system contains 1 mM NADP, 5 mM G-6-P and 1 Unit/mL G-6-PDH), pre-incubated in a 37° C. water bath for 10 minutes and then placed on ice for use as a NADPH regeneration solution. 20 mg/mL liver microsomes solution and 200 mM phosphate buffer was mixed, and diluted with ultrapure water to give a liver microsomes solution containing 2.5 mg/mL liver microsomes (the final concentration of the reaction system is 0.5 mg/mL) and 50 mM phosphate buffer. The diluted liver microsomes solution was mixed with 0.1 mM compound solution, a mixture of 100 mM EDTA, 300 mM MgCl2 solution, 200 mM phosphate buffer (the final system was 3 mM MgCl2, 1 mM EDTA and 50 mM phosphate buffer) and water in an appropriate volume was added. Finally, the NADPH regeneration solution was added, then the reaction solution was placed in a 37° C. water bath to start the reaction (the reaction time was 30 minutes), and the reaction was stopped by adding the ice-cold acetonitrile reaction stopping solution containing the internal standard. The 0-minute sample was not incubated in a 37° C. water bath, and its difference from the 30-minute sample further lies in that the ice-cold acetonitrile reaction stopping solution containing the internal standard was added first, and then the NADPH regeneration solution was added. The sample added with the reaction stopping internal standard solution was vortexed and mixed well, and then centrifuged at 4400 rpm for 10 minutes. The supernatant was taken and diluted ten times with 50% methanol for LC-MS/MS analysis.
(§13) LC-MS/MS was used to determine the concentration of the compound in the sample. The percentage of the remaining compound after 30 minutes of incubation comparing with that in the 0-minute sample was calculated using the peak area ratio of the compound to the internal standard as an indicator, to evaluate the metabolic stability of the compound.
(§14) Instrument: API4500, API4000 or LTQ Mass Spectrometer; the liquid phase is UHPLC system (Shimadzu LC-30 AD, model Nexra X2) including liquid delivery unit, column thermostat, detector and autosampler; or Agilent 1200 Binary Pump series HPLC and CTC Autosampler.
(§15) Chromatographic column: Waters XSELECT Hss T3 C18 (2.5 μm, 2.1×50 mm) or […] (5 μm, 2.0×50 mm)
(§16) A: water with 0.1% FA (formic acid) (with or without 0.1% ACN (acetonitrile))
(§17) B: acetonitrile with 0.1% FA (formic acid).

[4] = Stability test in liver microsomes (mouse); type: in vitro ADME; conditions: mouse liver microsomes 0.5 mg/mL, compound 1 μM, 37° C.
Source text: as §7, §8, §9, §10, §11, §12, §13, §14, §15, §16, §17

[5] = target: phosphorylated BTK in Ramos cells (Homo sapiens (Human), UniProt Q06187); assay: Determination of phosphorylated BTK in Ramos cells (BTK phospho-Y223 HTRF); type: cell-based; conditions: anti-human IgM + hydrogen peroxide stimulation
Sequence of phosphorylated BTK in Ramos cells (Q06187 whole entry): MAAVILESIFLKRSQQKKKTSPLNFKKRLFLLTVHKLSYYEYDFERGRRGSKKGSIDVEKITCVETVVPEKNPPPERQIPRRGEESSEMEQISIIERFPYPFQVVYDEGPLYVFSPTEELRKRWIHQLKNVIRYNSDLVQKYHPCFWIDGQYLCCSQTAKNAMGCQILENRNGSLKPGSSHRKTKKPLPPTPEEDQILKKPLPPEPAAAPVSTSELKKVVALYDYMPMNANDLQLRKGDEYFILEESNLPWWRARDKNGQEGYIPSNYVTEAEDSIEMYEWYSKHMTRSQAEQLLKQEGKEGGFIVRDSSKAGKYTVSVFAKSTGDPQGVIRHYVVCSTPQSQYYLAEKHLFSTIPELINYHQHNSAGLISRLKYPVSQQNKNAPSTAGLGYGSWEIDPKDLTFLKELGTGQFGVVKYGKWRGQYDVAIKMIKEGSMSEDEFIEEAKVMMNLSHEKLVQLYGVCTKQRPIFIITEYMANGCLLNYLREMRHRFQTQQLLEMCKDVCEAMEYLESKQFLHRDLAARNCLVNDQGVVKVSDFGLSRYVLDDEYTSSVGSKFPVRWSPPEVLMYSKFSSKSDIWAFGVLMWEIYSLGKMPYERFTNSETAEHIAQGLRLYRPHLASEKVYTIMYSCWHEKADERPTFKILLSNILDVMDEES
Summary of the method: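 Ramos cells starved 2 h in 1% FBS, then treated 1 h with compound (0.00018–3.0 μM, 0.3% DMSO). They were then stimulated 10 min at 37° C. with anti-human IgM (10 μg/mL) plus H2O2 (3.3 mM). Lysates read by BTK phospho-Y223 HTRF (665/615 nm ratio); IC50 fitted from inhibition normalized to stimulated and unstimulated controls.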

concentration at 16 h [2] [ng/mL] | RLM (percentage of the remaining compound after 30 minutes of incubation) ([3]; rat liver microsomes 0.5 mg/mL, compound 1 μM, 37° C.) [%] | MLM (percentage of the remaining compound after 30 minutes of incubation) [4] [%] | IC50 [5] [µM] | SMILES | Inhibition ratio (%) ([1]; 20 mg/kg single oral gavage, 16 h) | B cell activation ratio (the proportion of activated B cells to total B cells) ([1]; 20 mg/kg single oral gavage, 16 h, mean ± standard error) | inhibition ratio on B cell activation ([1]; 20 mg/kg, 16 hours after administration, mice whole blood, anti-IgD antibody) [%] | stability in rat & mouse liver microsomes compared with the reference GDC-0853 ([3]; rat & mouse liver microsomes, 30 minutes)
76.2 ± 41.7 | – | – | – | Cn1cc(-c2ccnc(-n3ccn4c5c(cc4c3=O)CC(C)(C)C5)c2CO)cc(Nc2ccc(N3CCN4CCOCC4C3)cn2)c1=O (racemic) [Compound 232] | 89 | 8.4 ± 1.9^***& | 89 | –
– | ~100 | 89.5 | 0.01 | Cn1cc(-c2ccnc(-n3ccn4c5c(cc4c3=O)CC(C)(C)C5)c2CO)cc(Nc2ccc(N3CCN(C4COC4)CC3=O)cn2)c1=O [Compound 34] | – | – | – | better than that of the reference GDC-0853

From US11478474B2, “2-(3′-(hydroxymethyl)-1-methyl-5-((5-(2-methyl-4-(oxetan-3-yl)piperazin-1-yl)pyridin-2-yl)amino)-6-oxo-1,6-dihydro-[3,4′-bipyridin]-2′-yl)-7,7-dimethyl-7,8-dihydro-2H-cyclopenta[4,5]pyrrolo[1,2-a]pyrazin-1(6H)-one as a BTK inhibitor” (HUTCHISON MEDIPHARMA LIMITED, priority 2020, dated 2022)
